Like-named read-outs stand apart in the source and are kept apart here.
Assay: Pharmacokinetics in control rats after gavage of JYPs
Assay type: in vivo, Sprague Dawley (SD) rats
Settings: for half-life / Tmax / AUC(0-inf) / AUC(0-t) / Cmax / MRT inf / MRT last: male, rat, plasma; for Tmax: po; for MRT inf: read-out: MRT(0-∞); for MRT last: read-out: MRT(0-t)
From the text: According to the established method for the analysis of serum biological samples, the pharmacokinetics of various components of rat serum were investigated after the administration of different dosages of JYPs to control rats.
For the control experiment, healthy male Sprague Dawley (SD) rats of SPF grade ([…] ± 20 g) were purchased from Sipeifu (Beijing) Biotechnology Co., Ltd. (Beijing, China), Animal Quality Certificate No. 110324220102348616. For the ADHD model rats, healthy male SHR rats of SPF grade, weighing 220 ± 20 g, were purchased from SBF (Beijing) Biotechnology Co., Ltd. (Beijing, China), License No. SCXK (Yu) 2019-0010. The animals were accommodated in the Animal Center of Henan University of Traditional Chinese Medicine, which successfully underwent an ethical audit with ethics number DWLL202208003. The animals were bred under controlled conditions at a temperature of 24 °C and a relative humidity of 50 ± 2%. Before the experiment, the animals abstained from eating for 12 h and had unrestricted access to water. The feeding and experimental research conducted on the experimental animals adhered to the laws outlined in the Management of Experimental Animals in Henan Province.
JYPs were ground into a fine powder and sieved through 60-mesh sieves; then, 20 g of fine JYP powder was taken, having been weighed precisely. A precise volume of 50 mL of pure water was added and mixed well to prepare a 0.4 g/mL suspension solution of JYPs, which was then stored in the refrigerator at 4 °C.
This study involved 24 healthy male SD rats with a body mass of 220 ± 20 g and 24 healthy male ADHD rats with a body mass of 220 ± 20 g. Subjects abstained from food for a duration of 12 h before the experiment and consumed water without restriction. Both kinds of rats were randomly divided into four groups: a blank group, given an equal dose of water intragastrically, and 3 different administration groups: rats given the equivalent human dose of JYPs by gavage in doses of 1.080 g/kg/d, 2.160 g/kg/d, and 4.320 g/kg/d. Tail vein blood was collected at 0.083, 0.25, 0.5, 0.75, 1, 1.5, 2, 3, 4, 6, 8, 12, 18, and 24 h after dosing. About 0.5 mL of blood was collected in sodium heparin centrifugal tubes, then centrifuged at 4 °C for 10 min at a speed of 3500r/min. We took the upper layer and placed it at −80 °C for preservation.
We took 200 μL of plasma, added 600 μL of methanol solution and 50 μL of internal standard (100 ng/mL), and subjected it to shaking for 5 min, followed by centrifugation at 4 °C at 12,000 r/min for 10 min. The supernatant was collected and allowed to dry, then reconstituted with 50 μL of 50% methanol and centrifuged at 4 °C at 14,000 r/min for a further 10 min. The supernatant after this process was taken as the test solution. A volume of 5 μL was used for UPLC-MS analysis. The drug concentration in plasma was calculated with the aid of the internal standard.
Chromatographic conditions: Hypersil GOLD (100 × 2.1 mm, 1.9 μm) column; column temperature 35 °C; mobile phase acetonitrile (A)/0.1% formic acid aqueous solution (B); gradient elution; gradient elution program: 0–0.5 min (95% B–95% B), 0.5–8 min (95% B–50% B), 8–14 min (50% B–20% B), 14–20 min (20% B–5% B), 20–22 min (5% B–5% B), 22–25 min (95% B–95% B); flow rate 0.2 mL/min; injection volume 5 μL.

[1] = Sprague Dawley, oral JYPs, range over compounds and doses, read-out: half-life (t1/2)
[2] = Sprague Dawley, oral JYPs, read-out: peak time (Tmax)
[3] = Sprague-Dawley, 1.08 g/kg/day, oral JYPs low dose 1.080 g/kg/d (1st of 3 values)
[4] = Sprague-Dawley, 1.08 g/kg/day, oral JYPs low dose 1.080 g/kg/d (1st of 3 values), read-out: t1/2 (converted)
[5] = Sprague-Dawley, 2.16 g/kg/day, oral JYPs medium dose 2.160 g/kg/d (2nd of 3 values)
[6] = Sprague-Dawley, 2.16 g/kg/day, oral JYPs medium dose 2.160 g/kg/d (2nd of 3 values), read-out: t1/2 (converted)
[7] = Sprague-Dawley, 4.32 g/kg/day, oral JYPs high dose 4.320 g/kg/d (3rd of 3 values)
[8] = Sprague-Dawley, 4.32 g/kg/day, oral JYPs high dose 4.320 g/kg/d (3rd of 3 values), read-out: t1/2 (converted)
[9] = Sprague-Dawley, 1.08 g/kg/day, oral JYPs low dose 1.080 g/kg/d (1st of 3 values), read-out: Tmax
[10] = Sprague-Dawley, 2.16 g/kg/day, oral JYPs medium dose 2.160 g/kg/d (2nd of 3 values), read-out: Tmax
[11] = oral JYPs high dose 4.320 g/kg/d (3rd of 3 values)
[12] = oral JYPs low dose 1.080 g/kg/d (1st of 3 values)
[13] = oral JYPs medium dose 2.160 g/kg/d (2nd of 3 values)
[14] = Sprague-Dawley, 4.32 g/kg/day, oral JYPs high dose 4.320 g/kg/d (3rd of 3 values), read-out: Tmax

SMILES	half-life [1]	Tmax [2]	AUC(0-inf) [3]	AUC(0-t) [3]	Cmax [3]	MRT inf [3]	half-life [4]	AUC(0-t) [5]	Cmax [5]	MRT last [5]	MRT inf [5]	half-life [6]	AUC(0-inf) [7]	AUC(0-t) [7]	Cmax [7]	MRT last [7]	MRT inf [7]	half-life [8]	Tmax [9]	Tmax [10]	further results
C[C@H]1O[C@@H](O[C@H]2CC[C@@]3(C)[C@@H](CC[C@]4(C)[C@@H]3C=C[C@]35OC[C@@]6(CCC(C)(C)C[C@H]63)[C@@H](O)C[C@]54C)[C@]2(C)CO)[C@H](O)[C@@H](O[C@@H]2O[C@H](CO)[C@@H](O)[C@H](O)[C@H]2O)[C@H]1O [Saikosaponin A]	7.52 to 13.7 h	< 1 h	135 ± 49.8 ng·h/mL	120 ± 40.6 ng·h/mL	38.9 ± 10.4 ng/mL	9.57 ± 3.88 h	7.52 ± 2.66 h	149 ± 49.5 ng·h/mL	47.4 ± 11.7 ng/mL	6.42 ± 0.6 h	13.3 ± 9.41 h	10.8 ± 9.21 h	245 ± 44.7 ng·h/mL	221 ± 42.5 ng·h/mL	67.4 ± 14.2 ng/mL	6.07 ± 1.19 h	9.11 ± 3.69 h	7.8 ± 3.3 h	0.53 ± 0.22 h	0.39 ± 0.17 h	AUMC(0-t) [11]: 1333.05± 317.31 ng/mL*(h)²; AUMC(0-ꝏ) [11]: 2265.45± 1085.76 ng/mL*(h)²; Clearances [11]: 4464.90 ± 760.17 mL/h; AUMC(0-t) [12]: 792.28± 390.55 ng/mL*(h)²; AUMC(0-ꝏ) [12]: 1355.37± 1006.84 ng/mL*(h)²; MRT(0-t) [12]: 6.55 ± 1.64 h; Vss [12]: 21125.87 ± 12315.99 mL; AUC(0-∞) [13]: 177.04 ± 46.52 ng·h/mL; AUMC(0-t) [13]: 935.87± 261.97 ng/mL*(h)²; AUMC(0-ꝏ) [13]: 2307.92± 1659.75 ng/mL*(h)²; Clearances [13]: 3201.17 ± 894.28 mL/h; Vss [13]: 42581.43 ± 30523.07 mL
C[C@H]1O[C@@H](O[C@H]2CC[C@@]3(C)[C@@H](CC[C@]4(C)[C@@H]3C=C[C@]35OC[C@@]6(CCC(C)(C)C[C@H]63)[C@H](O)C[C@]54C)[C@]2(C)CO)[C@H](O)[C@@H](O[C@@H]2O[C@H](CO)[C@@H](O)[C@H](O)[C@H]2O)[C@H]1O [Saikosaponin D]	7.52 to 13.7 h	< 1 h	97.3 ± 56.5 ng·h/mL	79.6 ± 44.6 ng·h/mL	21.5 ± 5.52 ng/mL	13.4 ± 4.81 h	11.4 ± 4.14 h	96.8 ± 29.3 ng·h/mL	30.1 ± 6.87 ng/mL	6.87 ± 0.65 h	13.3 ± 6.43 h	10.9 ± 6.69 h	157 ± 34.9 ng·h/mL	116 ± 12.3 ng·h/mL	41.8 ± 17.7 ng/mL	7.1 ± 1.12 h	16.6 ± 6.52 h	13.7 ± 5.61 h	0.43 ± 0.23 h	0.54 ± 0.1 h	MRT last [3]: 7.08 ± 1.57 h; AUC(0-inf) [5]: 117 ± 33.2 ng·h/mL; Tmax [14]: 0.33 ± 0.13 h; AUMC(0-t) [11]: 830.12± 197.07 ng/mL*(h)²; AUMC(0-ꝏ) [11]: 2785.93± 1472.47 ng/mL*(h)²; Vss [11]: 68432.42 ± 15413.77 mL; AUMC(0-t) [12]: 592.40± 473.29 ng/mL*(h)²; AUMC(0-ꝏ) [12]: 1331.60± 1006.07 ng/mL*(h)²; Clearances [12]: 2081.51 ± 796.95 mL/h; Vss [12]: 27762.67 ± 16738.07 mL; AUMC(0-t) [13]: 662.12± 211.50 ng/mL*(h)²; AUMC(0-ꝏ) [13]: 1586.66± 988.85 ng/mL*(h)²; Vss [13]: 41378.73 ± 24017.48 mL
CCC/C=C1\OC(=O)C2=C1CCC=C2 [Z-Ligustilide]	14.4 to 24 h	< 2 h	40.8 ± 9.33 ng·h/mL	28.7 ± 8.22 ng·h/mL	3.37 ± 1.11 ng/mL	20.4 ± 8.24 h	15.4 ± 5.99 h	32.7 ± 6.04 ng·h/mL	4.47 ± 1.9 ng/mL	8.96 ± 0.63 h	32 ± 20.9 h	24 ± 16.9 h	53.4 ± 9.38 ng·h/mL	36.5 ± 7.42 ng·h/mL	5.27 ± 1.27 ng/mL	8.76 ± 0.37 h	21.6 ± 6.2 h	16.4 ± 5.4 h	1.67 ± 0.52 h	1.17 ± 0.41 h	MRT last [3]: 8.54 ± 1.12 h; AUC(0-inf) [5]: 58.6 ± 20.7 ng·h/mL; Tmax [14]: 1.13 ± 0.44 h; AUMC(0-t) [11]: 319.41± 64.35 ng/mL*(h)²; AUMC(0-ꝏ) [11]: 1163.41± 438.24 ng/mL*(h)²; AUMC(0-t) [12]: 244.45± 72.75 ng/mL*(h)²; AUMC(0-ꝏ) [12]: 839.61± 369.47 ng/mL*(h)²; AUMC(0-t) [13]: 291.74± 50.18 ng/mL*(h)²; AUMC(0-ꝏ) [13]: 2206.47± 2197.92 ng/mL*(h)²

Reference: PMC10976160, “Comparative Pharmacokinetics Research of 13 Bioactive Components of Jieyu Pills in Control and Attention Deficit Hyperactivity Disorder Model Rats Based on UPLC-Orbitrap Fusion MS” (Molecules, 2024)
